Measurements published in US8557823B2, “Family of PFKFB3 inhibitors with anti-neoplastic activities” (Advanced Cancer Therapeutics, LLC, priority 2007, dated 2013).

Legend:
HL-60 leukemia cells = assay: In vitro growth inhibition, HL-60; format: cell-based, human; conditions: Homo sapiens, 50% of vehicle control cell growth
Protocol: (§1) The K562, HL-60, MDA-MB231, and melanoma (CRL-11174) human cancer cell lines were purchased from ATCC (American Tissue Type Culture Collection, Manassas, Va., United States of America). HeLa, A549, Lewis Lung Carcinoma, MDA-MB231, and melanoma cells were grown in Dulbecco's Modified Eagle Medium (DMEM) (Hyclone, Logan, Utah, United States of America) supplemented with 10% fetal bovine serum (Hyclone, Logan, Utah, United States of America) and 50 μg/mL gentamicin sulfate (Invitrogen, Carlsbad, Calif., United States of America). The HL-60, K562, and Jurkat cell lines were grown in RPMI-1640 medium (Hyclone, Logan, Utah, United States of America) supplemented with 10% fetal bovine serum and 50 μg/mL gentamicin sulfate. […]
(§2) Cells were collected 48 hours post-treatment, and cell number and viability were determined by trypan blue exclusion. […]

[1] = test system: HeLa cervical cancer cells; assay: In vitro growth inhibition, HeLa; format: cell-based; conditions: Homo sapiens
Protocol: as §1, §2

[2] = test system: PFKFB3+/- ht/LT/ras fibroblasts; assay: Growth inhibition of PFKFB3 haplo-insufficient transformed fibroblasts; format: cell-based, mice; conditions: Mus musculus, Fibroblast, 48 hours
Excerpt: FIG. 6B is a bar graph showing the anti-proliferative effects of 3PO in fibroblasts from wild-type (+/+) or haplo-insufficient (+/−) PFKFB3 mice which were subsequently immortalized and transformed with human telomerase (ht), large T antigen (LT), and oncogenic H-ras^v12. Cell numbers (expressed as % of cell numbers of control cells) for transformed wild type (+/+) cells are shown in solid bars and numbers for transformed haplo-insufficient (+/−) cells are shown in striped bars. As indicated at the bottom of the graph, cells were incubated with vehicle or increasing amounts of 3PO (5, 10, 20, 30, 40, or 60 μM). Viable cells were counted after 48 hours. The bars represent the mean±STD of triplicate values from a representative experiment. * p-value<0.01 represents statistical difference between vehicle control and 3PO treated samples.
Cells were collected 48 hours post-treatment, and cell number and viability were determined by trypan blue exclusion. IC50 values were calculated as the compound 1 concentration needed for 50% of vehicle treated cell growth.
One of the most difficult challenges of new anti-neoplastic therapies is in situ target validation. To address this question, two different cell lines with varying levels of PFKFB3 expression were studied. […]

[3] = test system: HL-60 leukemia cell xenografts; assay: HL-60 leukemia xenografts in Balb/c nude mice; format: in vivo; conditions: 0.07 mg/g IP, two daily injections followed by seven days off
Protocol: FIG. 7C is a graph showing the effects of 3PO treatment on the growth of established HL-60 acute promyelocytic leukemia xenografts in Balb/c athymic mice. Tumors were measured daily using blunt end Vernier calipers, and mice with established tumors (130-190 mg) were blindly randomized into either a DMSO control group (•, n=11) or a 3PO treatment group (∘, n=12). Experimental mice were weighed and given intraperitoneal (i.p.) injections of either 50 μL DMSO or 0.07 mg/g 3PO in 50 μL DMSO according to a cyclical dosing regimen of two sequential daily injections of DMSO or 3PO followed by seven day rest period for the duration of the study (14 days). Arrows (↓) represent control or 3PO administrations. Statistical difference was obtained after initial injection with a p-value<0.0001.
Exponentially growing MDA-MB231 and HL-60 cells were collected in appropriate medium, washed twice and resuspended in PBS at a concentration of 20×10^7 cells/mL. […] Body weight and tumor growth were monitored daily throughout the study. Tumor masses were determined by measurement with Vernier calipers using the formula: mass (mg)=[width (mm^2)×length (mm)]/2. […]
The first tumor model tested consisted of mouse Lewis Lung Carcinoma xenografts grown in C57/Blk6 mice. For this study, mice were given IP injections of either DMSO or the calculated dose of 1 once daily for the duration of the study (14 days). […]

O=C(/C=C/c1cccnc1)c1ccncc1 [Compound 1, 3-(3-pyridinyl)-1-(4-pyridinyl)-2-propen-1-one]
IC50 (HL-60 leukemia cells): 4.5 µM
IC50 [1]: 24 µM
IC50 [2]: 26 µM
inhibition of tumor growth compared to DMSO controls [3]: > 74%
